≈ marks a conversion by molar mass, not a printed value. Where “and” joins values, the source holds several entries; their conditions need not be identical. Equal values may be shown once. Read-outs that look alike come from different tables or passages of the source.
Legend:
[1] = system: Lemna paucicostata (L.) Hegelm. (duckweed); conditions: commercial herbicides; Michel et al. 2004; read-out: IC50 in the same duckweed bioassay; cited from earlier work
[2] = system: Flavobacterium columnare ALM-00-173; experiment: rapid 96-well microplate antibacterial bioassay against F. columnare; type: cell-based; conditions: F. columnare ALM-00-173; for MIC RDCF (relative-to-drug-control florfenicol): MIC divided by MIC of florfenicol; for IC50 / MIC: Flavobacterium columnare; for IC50: ALM00173, 24 h; for MIC: ALM00173, read-out: MIC (minimum inhibitory concentration); for MIC / MIC (minimum inhibitory concentration): 24 h
Text: An isolate of F. columnare [isolate ALM-00-173 (genomovar II)] was obtained from Dr. Covadonga Arias (School of Fisheries, Aquaculture and Aquatic Sciences, Auburn University, Auburn, Ala.). In order to assure purity, cultures of F. columnare ALM-00-173 were maintained separately on modified Shieh (MS) agar plates (pH 7.2-7.4) (Decostere, A., et al., Laboratory Animals, 36: 396-402 (2003)). Prior to conducting the bioassay, colonies of F. columnare ALM-00-173 were used to prepare the assay culture material by culturing in 75 mL of MS broth for 24 h at 29±1° C. at 150 rpm on a rotary shaker (model C24KC; New Brunswick Scientific, Edison, N.J.). After overnight incubation, a 0.5 McFarland standard of F. columnare ALM-00-173 culture material was prepared by transferring cells from the broth culture to fresh MS broth (Schrader, K. K., and M. D. Harries, Aquaculture Research, 37: 928-937 (2006)).
(§1) The pure test compounds (−)-diplopyrone and (−)-diplopyrone acetate were dissolved in technical grade 100% methanol while (−)-diplopyrone nitrile was dissolved in technical grade 100% acetone. The three test compounds were evaluated for antibacterial activity against F. columnare ALM-00-173 and E. ictaluri S02-1039 using a rapid 96-well microplate bioassay and following previous procedures (Schrader and Harries 2006). Florfenicol was included as a positive drug control. Control wells (no test material added) were also included in each assay. Final test concentrations of compounds and florfenicol were 0.01, 0.1, 1.0, 10.0, 100.0, and 1000.0 μM. Three replications were used for each dilution of each test compound and drug control, and final results were converted to units of mg/L to allow comparison with previous studies.
(§2) The 24-h 50% inhibition concentration (IC50) and minimum inhibitory concentration (MIC) were determined using sterile 96-well (flat bottom) polystyrene microplates (Corning Costar Corp., Acton, Mass.) for (−)-diplopyrone and (−)-diplopyrone acetate. In order to prevent solvent interaction with polystyrene, sterile 96-well (flat bottom) quartz microplates (Hellma Cells, Inc., Forest Hills, N.Y.) were used for (−)-diplopyrone nitrile. Initially, dissolved test compounds or florfenicol were micropippeted separately into individual microplate wells (10 μL/well), and the solvent was allowed to completely evaporate before 0.5 MacFarland bacterial culture was added to the microplate wells (200 μL/well). Microplates were incubated at 29±1° C. (VWR model 2005 incubator; Sheldon Manufacturing, Inc., Cornelius, Oreg.). A microplate photometer (SpectraCount, Packard Instrument Company, Meriden, Conn.) was used to measure the absorbance (630 nm) of the microplate wells at time 0 and 24-h. Two replicates of each microplate bioassay were made. Cell viability of F. columnare ALM-00-173 and E. ictaluri S02-1039 was determined at the completion of the growth bioassay for each test compound using the yellow dye 3(4,5-dimethylthiazol-2-yl)-2,5-diphenyl tetrazolium bromide (MTT) and previously outlined procedures (Schrader and Harries 2006). In addition, the minimum bactericidal concentration (MBC) was determined for very active compounds (Schrader and Harries 2006).
(§3) The means and standard errors of absorbance measurements were calculated, graphed, and compared to controls to determine the MIC, 24-h IC50, and MTT 24-h IC50 for each test compound. The 24-h IC50 and MIC results for each test compound were divided by the respective 24-h IC50 and MIC results obtained for the positive control florfenicol to determine the relative-to-drug-control florfenicol (RDCF) values.

[3] = system: Edwardsiella ictaluri S02-1039; experiment: rapid 96-well microplate antibacterial bioassay against E. ictaluri; type: cell-based; conditions: E. ictaluri S02-1039; for MIC RDCF (relative-to-drug-control florfenicol): MIC divided by MIC of florfenicol; for IC50: S021039, 24 h; for MIC / MIC (minimum inhibitory concentration): 24 h; for MIC: read-out: MIC (minimum inhibitory concentration)
Text: An isolate of E. ictaluri (isolate S02-1039) was obtained from a person (formerly with the College of Veterinary Medicine, Mississippi State University, Stoneville, Miss.). In order to assure purity, cultures of E. ictaluri S02-1039 were maintained on 3.8% Mueller-Hinton (MH) agar plates (pH 7.3) (Becton, Dickinson and Company, Sparks, Md.). Prior to conducting the bioassay, colonies of E. ictaluri S02-1039 were used to prepare assay culture material by aseptically transferring bacterial cells from colonies to 45 mL of 3.8% MH broth to form a bacterial cell density of 0.5 McFarland standard.
as §1, §2, §3

[4] = system: Lemna paucicostata (L.) Hegelm. (duckweed); experiment: duckweed phytotoxicity bioassay (growth by frond area); type: in vivo; conditions: for visual symptoms: 7 days of exposure, FIG. 7
Experimental: Pyranopyran (2), pyranopyran acetate (3), and pyranopyran nitrile (4) were also evaluated for phytotoxic activity using the aquatic plant Lemna paucicostata (L.) Hegelm. (duckweed). Dose-response curves from the aquatic plant Lemna paucicostata (L.) Hegelm. (duckweed) were obtained from experiments conducted. Duckweed was grown and treated as described by Michel et al. (Michel, A., et al., Environ. Toxicol. Chem., 23: 1074-1079 (2004)) with slight modifications. Duckweed stocks were cultivated from single L. paucicostata colonies (an aggregate of one mother and two daughter fronds to assure genetic uniformity) in Hoagland's No. 2 basal salt mixture with added iron (1000× Fe-EDTA solution, pH 5.5) in sterile trays. The plants were grown in a growth chamber under the following controlled conditions: continuous light at 26° C. and 120 μmol·s^−1·m^−2 photosynthetically active radiation. Hoagland solution was changed every two days. Bioassays were conducted in sterile […] (Falcon, Corning Life Science). Each well contained 5 mL with 1% EtOH with or without test compounds. Test compounds were dissolved in EtOH. A graphic template of the six-well plates was used for LemnaTec (LemnaTec, Würselen, Germany) image analysis software. Treatment plates, with two three-frond plants of the approximately same size per well, were incubated during 7 days of treatment. Each treatment was replicated three times. IC50 values (concentration of test compound that inhibits growth 50%) were determined with R statistics software. Effects on growth are evaluated by measuring area of the plant fronds with image analysis.

[5] = absorbance 630 nm, SE in parentheses, read-out: 24-h IC50 (50% inhibition concentration)
[6] = tetrazolium bromide dye MTT, read-out: MTT 24-h IC50 (cell viability)
[7] = Edwardsiella ictaluri, absorbance 630 nm, SE in parentheses, read-out: 24-h IC50 (50% inhibition concentration)
[8] = Edwardsiella ictaluri, tetrazolium bromide dye MTT, read-out: MTT 24-h IC50 (cell viability)
[9] = Edwardsiella ictaluri, S021039, SE in parentheses
[10] = absorbance 630 nm, SE in parentheses

Compound	MIC RDCF (relative-to-drug-control florfenicol) [2]	IC50 [2, 5] [µg/mL]	MIC ([2]; SE in parentheses) [µg/mL]	MIC RDCF (relative-to-drug-control florfenicol) [3]	IC50 [3, 7] [µg/mL]	MIC [3, 9] [µg/mL]	MIC (minimum inhibitory concentration) ([2]; SE in parentheses)	24-h IC50 (50% inhibition concentration) [2, 10]	MIC (minimum inhibitory concentration) ([3]; SE in parentheses)	24-h IC50 (50% inhibition concentration) [3, 10]	also measured
CCc1cnc(C2=NC(C)(C(C)C)C(=O)N2)c(C(=O)O)c1 (stereo not shown) [imazethapyr]	–	–	–	–	–	–	–	–	–	–	IC50 [1]: 930 nM
CC(C)c1ccc(NC(=O)N(C)C)cc1 [isoproturon]	–	–	–	–	–	–	–	–	–	–	IC50 [1]: 350 nM
CCC(CC)Nc1c([N+](=O)[O-])cc(C)c(C)c1[N+](=O)[O-] [pendimethalin]	–	–	–	–	–	–	–	–	–	–	IC50 [1]: 380 nM
O=C1C=C[C@H]2O[C@H](CO)C=C[C@H]2O1 [Desmethylpyranopyran (28), (4aR,6S,8aR)-6-(Hydroxymethyl)-6,8a-dihydropyrano[3,2-b]pyran-2(4aH)-one]	505.6 (0)	76.4 (≈ 419 µM)	182 (≈ 999 µM)	50.6 (0)	48.2 (≈ 265 µM)	18.2 (≈ 99.9 µM)	–	–	–	–	IC50 [2, 6]: 79.2 µg/mL (≈ 435 µM); IC50 [3, 8]: 14.7 µg/mL (≈ 80.7 µM)
C#C[C@@H]1C=C[C@H]2OC(=O)C=C[C@H]2O1 [compound 36, (4aR,6S,8aR)-6-Ethynyl-6,8a-dihydropyrano[3,2-b]pyran-2(4aH)-one]	–	–	–	–	–	–	–	–	–	–	melting point: 153 to 154 °C
CC(=O)O[C@H](C)[C@@H]1C=C[C@H]2OC(=O)C=C[C@H]2O1 [Pyranopyran acetate (3), (4aR,6S,8aR)-6-((R)-1-Acetoxyethyl)-6,8a-dihydropyrano[3,2-b]pyran-2-(4aH)-one]	661.1 (0)	–	–	661.1 (0)	–	–	238 mg/L and 238.0 (0) mg/L	>238.0 mg/L	238.0 (0) mg/L	165.4 (1.2) mg/L	MTT 24-h IC50 (cell viability) ([2]; tetrazolium bromide dye MTT): >238.0 mg/L; MTT 24-h IC50 (cell viability) ([3]; tetrazolium bromide dye MTT): 90.4 (4.8) mg/L

Continued, in another order:

MIC RDCF (relative-to-drug-control florfenicol) [2]	IC50 [2, 5] [µg/mL]	MIC ([2]; SE in parentheses) [µg/mL]	MIC RDCF (relative-to-drug-control florfenicol) [3]	IC50 [3, 7] [µg/mL]	MIC [3, 9] [µg/mL]	MIC (minimum inhibitory concentration) ([2]; SE in parentheses)	24-h IC50 (50% inhibition concentration) [2, 10]	MIC (minimum inhibitory concentration) ([3]; SE in parentheses)	24-h IC50 (50% inhibition concentration) [3, 10]	Compound	also measured
297.9 (243.8)	54.6 (≈ 280 µM)	107 (≈ 550 µM)	54.2 (0)	20.5 (≈ 105 µM)	19.5 (≈ 99.9 µM)	–	–	–	–	NC(=O)[C@@H]1C=C[C@H]2OC(=O)C=C[C@H]2O1 [Pyranopyran amide (29), (2S,4aR,8aR)-6-Oxo-2,4a,6,8a-tetrahydropyrano[3,2-b]pyran-2-carboxamide]	IC50 [2, 6]: 75.1 µg/mL (≈ 385 µM); IC50 [3, 8]: 16.6 µg/mL (≈ 85.1 µM); melting point: 160 to 164 °C
544.4 (0)	–	–	54.4 (0)	–	–	196.0 (0) mg/L	76.4 (2.0) mg/L	19.6±0 mg/L and 19.6 (0) mg/L	46.1 ± 1.0 mg/L	C[C@@H](O)[C@@H]1C=C[C@H]2OC(=O)C=C[C@H]2O1 [Pyranopyran (2), (4aR,6S,8aR)-6-((R)-1-Hydroxyethyl)-6,8a-dihydropyrano[3,2-b]pyran-2-(4aH)-one]	MTT 24-h IC50 (cell viability) ([2]; tetrazolium bromide dye MTT): 78.4 (0) mg/L; MTT 24-h IC50 (cell viability) ([3]; tetrazolium bromide dye MTT): 22.1 (9.3) mg/L
–	0.69 (≈ 1.93 µM)	0.36 (≈ 1 µM)	–	0.18 (≈ 0.502 µM)	0.36 (≈ 1 µM)	–	0.54 mg/L	–	0.14 mg/L	CS(=O)(=O)c1ccc([C@@H](O)[C@@H](CF)NC(=O)C(Cl)Cl)cc1 [Florfenicol, reference compound]	–
622.2 (0)	–	–	62.2 (0)	–	–	224.0 (0) mg/L	>224.0 mg/L	22.4 (0) mg/L	39.2 (1.1) mg/L	CC(=O)OC[C@@H]1C=C[C@H]2OC(=O)C=C[C@H]2O1 [Desmethylpyranopyran acetate (27), (2S,4aR,8aR)-6-Oxo-2,4a,6,8a-tetrahydropyrano[3,2-b]pyran-2-yl]methyl acetate]	MTT 24-h IC50 (cell viability) ([2]; tetrazolium bromide dye MTT): >224.0 mg/L; MTT 24-h IC50 (cell viability) ([3]; tetrazolium bromide dye MTT): 35.8 (4.5) mg/L
49.2 (0)	7.5 ± 0.5 (≈ 42.3 µM)	17.7 (≈ 99.9 µM)	0.5 (0)	7.7 ± 1.2 (≈ 43.5 µM)	0.002 (≈ 0.0113 µM)	17.7 (0) mg/L	–	0.002 (0) mg/L	–	N#C[C@@H]1C=C[C@H]2OC(=O)C=C[C@H]2O1 [Pyranopyran nitrile (4), (4aR,6S,8aR)-6-Cyano-6,8a-dihydropyrano-[3,2-b]pyran-2(4aH)-one]	IC50 [2, 6]: 16.8 ± 0.9 µg/mL (≈ 94.8 µM); MIC RDCF (relative-to-drug-control florfenicol) ([3]; listed as pyranopyran nitrile (4)): 0.5±0; IC50 [3, 8]: 64.6 µg/mL (≈ 365 µM); MBC ([3]; Edwardsiella ictaluri, S021039, bound is the highest test concentration, read-out: minimum bactericidal concentration (MBC)): > 177 µg/mL; IC50 ([4]; Lemna aequinoctialis, 144 h, Lemna paucicostata growth, frond area, FIG. 6, 6 days of exposure, read-out: IC50 (concentration that inhibits growth 50%)): < 1000 nM; visual symptoms ([4]; at 33 μM and higher): some of the plants had no chlorophyll and were necrotic; visual symptoms ([4]; at 100 μM): many of the plants were devoid of chlorophyll and necrotic; melting point: 162 to 164 °C
